Values quoted from earlier work, collected in patent publication US20260240147A1, “MANCOZEB NANOSUSPENSION AND PREPARATION METHOD THEREOF” (priority 2022, published 2026).

Substance: manganese ethylene bis(dithiocarbamate) polymeric complex with zinc salt coordination compound [mancozeb]
- solubility in most organic solvents: insoluble
- solubility in water (pH 7.5, 25° C.): 6.2 µg/mL
